Consider 31 compounds from US8329704B2, “Substituted pyrazinone derivatives for use in MCH-1 mediated diseases” (Janssen Pharmaceutica, N.V., priority 2005, dated 2012).

For orientation: melting point means the temperature, or range, at which the solid turns liquid.

Structures are written as SMILES. Counter-ions that a name gives are not always drawn. Bounds are passed on as bounds.

In data set [1] the target is T1, human MCH-1 receptor (Homo sapiens, UniProt Q99705).
T1 construct: expressed in transfected cells
T1 sequence (Q99705 whole entry): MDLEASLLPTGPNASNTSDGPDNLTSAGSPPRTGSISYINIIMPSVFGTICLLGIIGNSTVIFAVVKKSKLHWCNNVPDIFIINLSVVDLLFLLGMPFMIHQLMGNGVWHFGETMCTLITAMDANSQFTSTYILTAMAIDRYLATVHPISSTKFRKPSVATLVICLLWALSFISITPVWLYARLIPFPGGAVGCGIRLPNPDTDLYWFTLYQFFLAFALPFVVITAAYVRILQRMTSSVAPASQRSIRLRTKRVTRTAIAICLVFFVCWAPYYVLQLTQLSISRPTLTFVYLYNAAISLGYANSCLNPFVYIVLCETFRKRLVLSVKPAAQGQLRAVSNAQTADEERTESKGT
The experiment in a line: Ca2+ mobilization experiment for the MCH-1 receptor (FLIPR), inhibition of MCH-induced Ca2+ mobilization. In kind it is cell-based. The following applies: CHO cells stably expressing human MCH-1 receptor, inhibition of MCH-induced Ca2+ response, read-out: MCH-1 pIC50 (converted). Summed up:
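Calcium-dye loading (kit with probenecid) of CHO cells stably expressing human MCH-1 ran 90 min at 37C. Cells were then preincubated with compound for 20 min at RT before a submaximal MCH challenge, and Ca2+ was recorded by FLIPR. Responses were expressed as % of compound-free response, and pIC50 came from sigmoidal fits.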

Data set [2] has as its target T2, MCH-1 receptor (Rattus norvegicus, UniProt P97639).
T2 construct: host or cells: rodents in vivo
The following applies: rodents tests; Nat. Med. (2002) 8, 825-830; cited from earlier work.

T2 sequence (P97639 whole entry): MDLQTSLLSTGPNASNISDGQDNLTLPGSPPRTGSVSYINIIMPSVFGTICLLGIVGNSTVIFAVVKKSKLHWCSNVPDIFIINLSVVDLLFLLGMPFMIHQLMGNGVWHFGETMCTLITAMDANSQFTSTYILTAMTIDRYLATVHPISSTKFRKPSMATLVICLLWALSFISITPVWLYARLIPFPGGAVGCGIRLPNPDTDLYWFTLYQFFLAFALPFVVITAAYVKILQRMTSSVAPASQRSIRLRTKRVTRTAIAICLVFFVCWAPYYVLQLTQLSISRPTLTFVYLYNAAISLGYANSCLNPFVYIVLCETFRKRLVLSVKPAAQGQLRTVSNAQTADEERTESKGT

`COc1cc(-n2ccnc(NCCOc3ccccc3)c2=O)ccc1OCCN1CCCC1` (as salt: HCl) [1-67] registered a melting point of 198.7 °C.
Same read-out and setting: the result for `COc1cc(-n2ccnc(NCCOc3ccccc3)c2=O)ccc1OCCN1CCC(F)CC1` (as salt: HCl) [1-70] reads 234.9 °C.
`CN(CCO)CCOc1ccc(-n2ccnc(NCCOc3ccccc3)c2=O)cc1` [1-26]: the melting point turned out to be 103.6 °C. The IC50 in data set [1] was 251 nM.
Regarding `CC(=O)N(C)CCOc1ccc(-n2ccnc(NCCOc3ccccc3)c2=O)cc1` [1-30], the melting point came out at 105.9 °C. Besides, in data set [1], the IC50 is 501 nM.
For `O=c1c(NCCOc2ccccc2)nccn1-c1ccc(OCCN2CCOCC2)cc1` [1-44], in that order: 138.1 °C and 501 nM.
Turning to `O=c1c(NCCc2ccccc2)nccn1-c1ccc(OCCN2CCCC2)c(Cl)c1` [2-03], the melting point amounted to 120.2 °C. Besides, the IC50 in data set [1] is 31.6 nM.
On the same counts, the results for `COc1cc(-n2ccnc(NCCc3ccccc3)c2=O)ccc1OCCN1CCCC1` [2-04] are 101.1 °C and 39.8 nM.
The compound `COc1cc(-n2ccnc(SCCc3ccccc3)c2=O)ccc1OCCN1CCCC1` [2-11] returned a melting point of 79.4 °C. Besides, the IC50 in data set [1] is 20 nM.
`COc1cc(-n2ccnc(NCCc3ccccc3)c2=O)ccc1N1CCC(N2CCOCC2)C1` (centres unmarked) [3-21]: the melting point is > 300 °C. The IC50 in data set [1] is 79.4 nM.
Regarding `COc1cc(-n2ccnc(NCCc3ccccc3)c2=O)ccc1NCCCN1CCOCC1` [3-30], the melting point was > 300 °C. In addition, the IC50 in data set [1] is 63.1 nM.
Compound `COc1cc(-n2ccnc(NCCc3ccccc3)c2=O)ccc1OC1CCNC1` (centres unmarked) [3-31] displayed a melting point of 151.6 °C. Further, the IC50 in data set [1] was 39.8 nM.
Take `O=c1c(NCCc2ccccc2)nccn1-c1ccc(OCCN2CCC(O)CC2)c(Cl)c1` [3-81]: the melting point was 151.2 °C. Further, the IC50 in data set [1] was 25.1 nM.
For `CC(=O)N1CCN(CCOc2ccc(-n3ccnc(NCCc4ccccc4)c3=O)cc2Cl)CC1` [3-83], in that order: 121.8 °C and 50.1 nM.
For `CNC1CCN(c2ccc(-n3ccnc(SCCc4ccccc4)c3=O)cc2OC)C1` (centres unmarked) [6-04], in that order: 113.2 °C and 25.1 nM.
The compound `COc1cc(-n2ccnc(SCCc3ccccc3)c2=O)ccc1N1CCC(N(C)C)C1` (centres unmarked) [6-07] returned a melting point of 126.5 °C. Also, in data set [1], the IC50 was 20 nM.
Consider `COc1cc(-n2ccnc(SCCc3ccccc3)c2=O)ccc1N1CCC(N(C)C(C)=O)C1` (centres unmarked) [6-08], for which the melting point came to 105.5 °C. For the same compound, the IC50 in data set [1] is 31.6 nM.
With `COc1cc(-n2ccnc(SCCc3ccccc3)c2=O)ccc1N1CCOCC1` [6-10], the IC50 in data set [1] was 63.1 nM.
For `COc1cc(-n2ccnc(SCCc3ccccc3)c2=O)ccc1N1CCC(O)CC1` [6-11], in data set [1], the IC50 is 126 nM.
The same measure, in the same setting: the result for `COc1cc(-n2ccnc(SCCc3ccccc3)c2=O)ccc1C=CCN1CCCC1` [6-12] reads 25.1 nM; that for `COc1cc(-n2ccnc(SCCc3ccccc3)c2=O)ccc1C=CCN1CCOCC1` [6-13], 20 nM.
Take `COc1cc(-n2ccnc(SCCc3ccccc3)c2=O)ccc1OC1CCNC1` (centres unmarked) [6-14]: in data set [1], the IC50 is 100 nM.
On the same count and under the same terms, under `COc1cc(-n2ccnc(SCCc3ccccc3)c2=O)ccc1OC1CCN(C)C1` (centres unmarked) [6-15] stands 15.8 nM; under `COc1cc(-n2ccnc(SCCc3ccccc3)c2=O)ccc1OC1CCN(C(C)C)C1` (centres unmarked) [6-16], 25.1 nM.
Turning to `CCCN1CCC(Oc2ccc(-n3ccnc(SCCc4ccccc4)c3=O)cc2OC)C1` (centres unmarked) [6-17], the IC50 in data set [1] was 15.8 nM.
On to `COc1cc(-n2ccnc(SCCc3ccccc3)c2=O)ccc1NC(=O)CN1CCCC1` [6-18], for which the melting point is > 300 °C. The IC50 in data set [1] was 316 nM.
On to `COc1cc(-n2ccnc(NCCCOc3ccccc3)c2=O)ccc1OC1CCNCC1` [7-01], for which the IC50 in data set [1] is 31.6 nM.
Take `COc1cc(-n2ccnc(NCCCOc3ccccc3)c2=O)ccc1OC1CCN(C(=O)OC(C)(C)C)CC1` [7-02]: the IC50 in data set [1] was 126 nM.
For `COc1cc(-n2ccnc(NCCCOc3ccccc3)c2=O)ccc1OCCN(C)C(C)=O` [7-03], the IC50 in data set [1] was 31.6 nM.
For the compound `O=c1c(NCCc2ccccc2)nccn1CCc1ccc(CN2CCCC2)cc1` [9-01], the melting point worked out at 177 °C. Further, in data set [1], the IC50 is 20 nM.
In the case of `O=c1c(NCCc2ccccc2)nccn1CCc1ccc(CN2CCOCC2)cc1` [9-02], the IC50 in data set [1] was 39.8 nM.
With `COCC1=C(C(=O)OC)[C@H](c2ccc(F)c(F)c2)N(C(=O)NCCCN2CCC(c3cccc(NC(C)=O)c3)CC2)C(=O)N1` [SNAP-7941], in data set [2], the “antidepressant- and anxiolytic-like effects” value was “antidepressant- and axiolytic-like affects”.
